How the values were obtained:
[1] = test system: SAPAP3 knockout mice; test: Semi-quantitative scoring of lesion severity (scale 0-4); format: in vivo, mouse
Method: Four cohorts of eight SAPAP3 knockout mice and four cohorts of eight wild type mice were housed in isolation and allowed to acclimate as above. One cohort of each genotype served as a 5 mg/kg Fluoxetine experimental group, one as a 10 mg/kg Fluoxetine experimental group, one as a vehicle control group, and one as an uninjected control group.

[2] = test system: SAPAP3 knockout mice; test: Videotaped grooming behaviour scoring after Fluoxetine treatment; format: in vivo, mouse; settings: 5 mg/kg daily intraperitoneal, after six days, vs SAPAP3 knockout vehicle control group
Method: To ascertain the source of the lesions quantitative, video studies of the knockout mice were performed. Groups of 10 wild type mice and 10 knockout mice were housed such that each mouse was isolated in a single cage. Following an acclimatization period to individual housing, each mouse was videotaped for 24 hours. Three, four-hour sections (10 AM-2 PM, 6 PM-10 PM, and 2 AM-6 AM) of each 24-hour period were watched and scored for a panel of behaviors: grooming, drinking/eating, sleeping, rearing, digging/shifting, or alert/active. When analyzed on either a “time spent” or “number of bouts engaged in” basis, it was obvious that SAPAP3 knockout mice groomed far more than their wild type counterparts in every time period examined (see FIGS. 3 and 4).
Two cohorts of eight SAPAP3 knockout mice and two cohorts of eight wild type mice were housed in isolation and allowed to acclimate as in Example 2. One cohort of each genotype served as an experimental group and the other as a vehicle control group. The experimental groups were given a daily intraperitoneal injection of 5 mg/kg Fluoxetine for fourteen days. The control groups were given a daily vehicle injection under the same conditions.
After six days, mice from each group were individually videotaped and their behaviors scored as in Example 2. […]

[3] = test system: SAPAP3 knockout animals; settings: mouse, in vivo, 10 mg/kg
[4] = test system: SAPAP3 knockout mice; test: Light-dark box emergence test after Fluoxetine treatment; format: in vivo, mouse; settings: after 6 days of treatment with 5 mg/kg, intraperitoneal
Method: In the light dark box test, SAPAP3 knockout mice and wild type mice were individually placed into the dark half a two chamber box. The box contained a completely dark chamber and a chamber lit with a bright light. At time=0, the door was opened between the two chambers.
Following videotaping, the four groups of mice were tested on the light-dark box emergence test.

[5] = share of SAPAP3 KO mice, Fluoxetine groups (5 and 10 mg/kg) combined, at two weeks

## CNCCC(Oc1ccc(C(F)(F)F)cc1)c1ccccc1 (stereo not shown) [Fluoxetine]
[1]; SAPAP3 knockout mice, 5 and 10 mg/kg groups combined vs vehicle and uninjected groups combined, over a 2 week period
  lesion severity (scale of 0-4): stabilized or improved lesions
[1]; [5]
  Lesion severity: Improve: 28.6%
  Lesion severity: No Change: 71.4%
  Lesion severity: Worse: 0%
[2]
  bouts of grooming: far fewer bouts of grooming
[3]
  toxicity to SAPAP3 knockout animals relative to wild type controls: progressively more toxic
[4]
  performance on the light-dark box emergence test (latency to leave dark chamber): significantly improved
